From patent publication US20110053897A1 (IRM LLC, priority 2009, published 2011) come the findings set out here.

Tested on in one data set: not listed separately
Nature of the data set: Pharmacokinetic parameters (bioavailability, metabolic stability, half life, compound exposure). To be noted: qualitative statement, values not given.
Take `CC(C)(C)Nc1nc(Nc2cnccn2)cc2ccn(C[C@@H](O)CO)c(=O)c12` [compound 668, (R)-8-(tert-butylamino)-2-(2,3-dihydroxypropyl)-6-(pyrazin-2-ylamino)-2,7-naphthyridin-1(2H)-one]: the “pharmacokinetic parameters, such as bioavailablity, enhanced metabolic stability, half life and compound exposure” value was “improved pharmacokinetic parameters”.

In a further data set the target is T1, Syk kinase (Homo sapiens, UniProt P43405).
T1 construct: purchased
In words: Syk kinase inhibition, Caliper LabChip off-chip mobility-shift kinase assay. The data set is classed as biochemical. To be noted: Caliper LabChip assay; read-out: Syk Enzyme IC50. The method, boiled down:
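Purified Syk pre-incubated 15 min with compound in 100 mM HEPES pH 7.5, 1 mM DTT, 10 mM MgCl2 or MnCl2, 0.002% Brij-35, then 1.5 μM fluorescein peptide and ATP at apparent KM added; 1–1.5 h at room temperature, 4% DMSO, EDTA stop. Microfluidic mobility-shift product/substrate conversion gave % inhibition; IC50 from 12-point series (10–0.00003 μM) by 4-parameter fit.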
For the molecule `CC(C)(C)Nc1nc(Nc2cnccn2)cc2ccn(C[C@@H](O)CO)c(=O)c12` [compound 668, (R)-8-(tert-butylamino)-2-(2,3-dihydroxypropyl)-6-(pyrazin-2-ylamino)-2,7-naphthyridin-1(2H)-one], the IC50 turned out to be 7 nM.
On to `CC(C)(C)Nc1nc(Nc2cc(C(C)(C)O)ncn2)cc2ccn(C3COC3)c(=O)c12` [compound 734], for which the IC50 was 57 nM.
The same measure, in the same setting: the same measure for `N#CCCn1ccc2cc(Nc3cnccn3)nc(N[C@H]3CC[C@@H](O)CC3)c2c1=O` [compound 1002]: 14 nM.
As to `C[C@@H](CO)Nc1nc(Nc2cnccn2)cc2ccn(CCC#N)c(=O)c12` [compound 1003], the IC50 was found to be 27 nM.
The same measure, in the same setting: in the case of `CC(C)(C)Nc1nc(Nc2cnccn2)cc2ccn(CCC#N)c(=O)c12` [compound 1004] it was 19 nM; in that of `COCCn1ccc2cc(Nc3cnccn3)nc(N[C@H]3CC[C@@H](O)CC3)c2c1=O` [compound 1005], 17 nM.
On the same count and under the same terms, in the case of `COCCn1ccc2cc(Nc3cnccn3)nc(NC(C)(C)C)c2c1=O` [compound 1006] it was 96 nM.
Still for that read-out and setting: in the case of `O=C(Cn1ccc2cc(Nc3cnccn3)nc(N[C@H]3CC[C@@H](O)CC3)c2c1=O)N1CCOCC1` [compound 1007] it was 132 nM.
With `CC(C)(C)Nc1nc(Nc2cnccn2)cc2ccn(CC(=O)N3CCOCC3)c(=O)c12` [compound 1008], the 50% inhibitory concentration (IC50) stood at 238 nM.
On the same count and under the same terms, in the case of `O=c1c2c(N[C@H]3CC[C@@H](O)CC3)nc(Nc3cnccn3)cc2ccn1C1COC1` [compound 1009] it was 19 nM; in that of `O=c1c2c(N[C@H]3CC[C@@H](O)CC3)nc(Nc3cnccn3)cc2ccn1C1CS(=O)(=O)C1` [compound 1010], 10 nM.
On to `CC(C)(C)Nc1nc(Nc2cnccn2)cc2ccn(CC(O)C(F)(F)F)c(=O)c12` (stereo not drawn) [compound 1011], for which the IC50 was determined as 459 nM.
On to `O=c1c2c(N[C@H]3CC[C@@H](O)CC3)nc(Nc3cnccn3)cc2ccn1CC(O)C(F)(F)F` (stereo partly drawn) [compound 1012], for which the IC50 was 56 nM.
Same read-out and setting: the same measure for `CC(C)(C)Nc1nc(Nc2cnccn2)cc2ccn(CCOCCO)c(=O)c12` [compound 1013]: 69 nM; for `CC(C)(C)Nc1nc(Nc2cnccn2)cc2ccn(C3COC3)c(=O)c12` [compound 1014]: 120 nM; for `CC(C)(C)Nc1nc(Nc2cnccn2)cc2ccn(C3CS(=O)(=O)C3)c(=O)c12` [compound 1015]: 138 nM.
On the same count and under the same terms, in the case of `CC(C)n1ccc2cc(Nc3c[n+]([O-])ccn3)nc(N[C@H]3CC[C@@H](O)CC3)c2c1=O` [compound 1016] it was 105 nM; in that of `CC(C)n1ccc2cc(Nc3c[n+]([O-])ccn3)nc(N[C@H]3CC[C@@H](O)C3)c2c1=O` [compound 1017], 25 nM; in that of `CC(C)n1ccc2cc(Nc3c[n+]([O-])ccn3)nc(N[C@H]3CC[C@@H](CO)C3)c2c1=O` [compound 1018], 13 nM.
In the case of `CC(C)(C)Nc1nc(Nc2cnccn2)cc2ccn(Cc3ccncc3)c(=O)c12` [compound 1019], the IC50 is 301 nM.
Same read-out and setting: the same measure for `CC(C)(C)Nc1nc(Nc2cnccn2)cc2ccn(Cc3cccnc3)c(=O)c12` [compound 1020]: 164 nM; for `CC(C)(C)Nc1nc(Nc2cnccn2)cc2ccn(Cc3ccccn3)c(=O)c12` [compound 1021]: 219 nM; for `O=c1c2c(N[C@H]3CC[C@@H](O)CC3)nc(Nc3cnccn3)cc2ccn1CC(F)F` [compound 1022]: 11 nM.
Still for that read-out and setting: in the case of `CC(C)(C)Nc1nc(Nc2cnccn2)cc2ccn(CC(F)F)c(=O)c12` [compound 1023] it was 179 nM; in that of `O=c1c2c(N[C@H]3CC[C@@H](O)CC3)nc(Nc3cnccn3)cc2ccn1Cc1ccncc1` [compound 1024], 174 nM; in that of `O=c1c2c(N[C@H]3CC[C@@H](O)CC3)nc(Nc3cnccn3)cc2ccn1CC(F)(F)F` [compound 1025], 16 nM.
On to `[2H]C([2H])([2H])n1ccc2cc(-c3cnc(N)nc3)nc(N[C@H]3CC[C@@H](O)CC3)c2c1=O` [compound 1026], for which the IC50 was 21 nM.
Same read-out and setting: the same measure for `CC(C)n1ccc2cc(-c3cnc(N)nc3)nc(N[C@H]3CC[C@@H](O)CC3)c2c1=O` [compound 1027]: 32 nM.
`Nc1ncc(-c2cc3ccn(CCO)c(=O)c3c(N[C@H]3CC[C@@H](O)CC3)n2)cn1` [compound 1028]: the IC50 is 14 nM.
On the same count and under the same terms, the same measure for `Nc1ncc(-c2cc3ccn(CCN4CCOCC4)c(=O)c3c(N[C@H]3CC[C@@H](O)CC3)n2)cn1` [compound 1029]: 72 nM; for `CC(C)n1ccc2cc(-c3cnc(N)nc3)nc(N[C@H]3CC[C@@H](CO)C3)c2c1=O` [compound 1030]: 48 nM.
`CC(C)n1ccc2cc(-c3cnc(N)nc3)nc(N[C@H]3CC[C@@H](O)C3)c2c1=O` [compound 1031]: the IC50 stood at 7 nM.
In the case of `CCn1ccc2cc(-c3cnc(N)nc3)nc(N[C@H]3CC[C@H](O)CC3)c2c1=O` [compound 1032], the IC50 is 46 nM.
Still for that read-out and setting: in the case of `CC(C)(C)Nc1nc(-c2cnc(N)nc2)cc2ccn(CCN3CCOCC3)c(=O)c12` [compound 1033] it was 60 nM; in that of `CC(C)(C)Nc1nc(Nc2cnccn2)cc2ccn(CCCO)c(=O)c12` [compound 1034], 12 nM; in that of `Nc1ncc(-c2cc3ccn(CCO)c(=O)c3c(NC3CC3)n2)cn1` [compound 1035], 38 nM.
Take `CC1(Nc2nc(-c3cnc(N)nc3)cc3ccn(CCO)c(=O)c23)CC1` [compound 1036]: the IC50 is 20 nM.
For the molecule `CCn1ccc2cc(-c3cnc(N)nc3)nc(NC(C)(C)CCO)c2c1=O` [compound 1037], the IC50 stood at 14 nM.
Take `CCn1ccc2cc(-c3cnc(N)nc3)nc(N[C@H]3CC[C@@H](O)C3)c2c1=O` [compound 1039]: the IC50 was determined as 12 nM.
Regarding `CCn1ccc2cc(Nc3cc(C)ccn3)nc(N[C@@H]3CC[C@@H](O)C3)c2c1=O` [compound 1040], the IC50 is 84 nM.
For the molecule `CCn1ccc2cc(Nc3cc(C)ccn3)nc(N[C@H](CO)C(C)C)c2c1=O` [compound 1041], the IC50 stood at 158 nM.
Still for that read-out and setting: the same measure for `CC[C@@H](CO)Nc1nc(Nc2cnccn2)cc2ccn(CC)c(=O)c12` [compound 1042]: 111 nM; for `CCn1ccc2cc(Nc3cnccn3)nc(N[C@H](CO)C(C)C)c2c1=O` [compound 1043]: 122 nM; for `CCn1ccc2cc(Nc3cnccn3)nc(NCC(F)(F)F)c2c1=O` [compound 1044]: 110 nM.
Take `CC(C)Nc1nc(Nc2cc(-c3cccnc3)ccn2)cc2cc[nH]c(=O)c12` [compound 1045]: the IC50 was 247 nM.
The same measure, in the same setting: the same measure for `CC(C)Nc1nc(Nc2cc(-c3cccnc3)ccn2)cc2ccn(C)c(=O)c12` [compound 1046]: 113 nM.
The same measure, in the same setting: the same measure for `[2H]C([2H])([2H])n1ccc2cc(Nc3cc(C)ccn3)nc(NC(C)(C)CO)c2c1=O` [compound 1047]: 77.2 nM; for `[2H]C([2H])([2H])n1ccc2cc(Nc3cnccn3)nc(NC[C@@H]3CCCO3)c2c1=O` [compound 1048]: 164 nM.
For the molecule `[2H]C([2H])([2H])n1ccc2cc(Nc3cc(C)c(F)cn3)nc(NC(C)(C)CO)c2c1=O` [compound 1049], the IC50 stood at 89.9 nM.
In the case of `[2H]C([2H])([2H])n1ccc2cc(Nc3cnccn3)nc(N[C@@H](C)CO)c2c1=O` [compound 1050], the IC50 was 45.7 nM.
As for `[2H]C([2H])([2H])n1ccc2cc(Nc3cc(Cl)ccn3)nc(N[C@@H](C)CO)c2c1=O` [compound 1051], the IC50 worked out at 60.4 nM.
Take `[2H]C([2H])([2H])n1ccc2cc(Nc3cc(Cl)ccn3)nc(NC[C@@H]3CCCO3)c2c1=O` [compound 1052]: the IC50 is 236 nM.

A further data set concerns the target T1, Syk kinase. Nature of the data set: Selectivity for Syk kinase over other kinases, receptors, enzymes and transporters. The data set is classed as biochemical. To be noted: qualitative statement, values not given.
`CC(C)(C)Nc1nc(Nc2cc(C(C)(C)O)ncn2)cc2ccn(C3COC3)c(=O)c12` [compound 734]: the “selectivity for Syk kinase over other kinases, as well as other receptors, enzymes and transporters” value is given as “improved Syk selectivity”.

The IC50 is the concentration needed to halve the response being measured.
